Where a name gives a salt, the structure may show the parent alone. Marks after values point to notes of the source that are not given here.
B1: ^131I-B72.3: iodine-131 labeled anti-TAG72 monoclonal antibody B72.3 (radioimmunoconjugate) (conjugate, chains of the INN, looked up)
VH: QVQLQQSDAELVKPGASVKISCKASGYTFTDHAIHWAKQKPEQGLEWIGYISPGNDDIKYNEKFKGKATLTADKSSSTAYMQLNSLTSEDSAVYFCKRSYYGHWGQGTTLTVSS
VL: DIQMTQSPASLSVSVGETVTITCRASENIYSNLAWYQQKQGKSPQLLVYAATNLADGVPSRFSGSGSGTQYSLKINSLQSEDFGSYYCQHFWGTPYTFGGGTRLEIK
modifications: iodine-131 label

Legend:
[1] = tested on: LS174T human colorectal adenocarcinoma xenografts; assay: Radioimmunotherapy of SQ LS174T xenografts in athymic mice, with or without COMPOUND I mesylate; settings: for Relative tumor growth: relative to no treatment = 1
LS174T SQ xenografts = assay: Effect of COMPOUND I on radiosensitivity of adenocarcinoma xenografts (external radiation); settings: P=0.127, Mantel-Cox logrank analysis
LS174T cells = assay: Effect of COMPOUND I mesylate on radiosensitivity of in vitro grown cells; assay type: cell-based, human

Molecule | Tq (days) ([1]; quadrupling time calculated on day 10 (*), COMPOUND I mesylate PO BID 2 mg/mouse/day) | Relative tumor growth [1] | difference between radiation plus COMPOUND I mesylate and radiation only (LS174T SQ xenografts) | effect on radiosensitivity, combined with radiation (LS174T cells; monolayer, irradiation 1.95 Gy/min, total doses 1 Gy and 6 Gy) | effect on cell cycle (LS174T cells; pharmacologically relevant concentrations) | tumor response ([1]; escalating doses) | Tq (days) ([1]; quadrupling time calculated on day 28 (**) after 0.25 mCi ^131I-B72.3 IV) | tumor response ([1]; single dose of 0.5 mCi or similar doses) | effect of combined treatment with COMPOUND I mesylate in vitro (LS174T cells; ^131I-labeled antibody plus COMPOUND I mesylate)
Cc1ccc(NC(=O)c2ccc(CN3CCN(C)CC3)cc2)cc1Nc1nccc(-c2cccnc2)n1 [COMPOUND I mesylate] | 7.75* days | 1 | no statistical differences | not sufficient in vitro to synchronize all cells | Arrest of LS174T cells in the G1 phase |  |  |  | 
B1 |  | 2.4 |  |  |  | cures and tumor growth arrest | 18.95** days | growth delay but no cures | neither additive nor synergistic effects are measurable

Source: patent US20070037825A1, “Enhancing the effect of radioimmunotherapy in the treatment of tumors” (priority 2002, published 2007)
